Assay results published in patent publication US20120225905A1, “BEPOTASTINE COMPOSITIONS” (Mitsubishi Tanabe Pharma Corporation, priority 2010, published 2012).

Assay: Clinical Example 1: pharmacokinetic assessments
Assay type: in vivo, human
Conditions: plasma, noncompartmental PK analysis
Description: At Visit 3 (a minimum of 3 days after Visit 2), a subset of approximately 35 subjects who qualified at Visit 2 were randomized and began PK blood draws in the clinic that occurred over 24 hours for placebo, 2%, 4%, or 6% dosages of bepotastine besilate (using a randomization ratio of 1:1:1:1). There were approximately nine subjects in each of the four treatment groups. Blood sampling for PK assessments was drawn within 90 minutes (pre-dose). Subjects were dosed and additional blood samples were collected at 10, 20, 30, and 45 minutes post-dose and at 1, 1.25, 2, 3, 4, 6, 10, and 12 hours post-dose while remaining in the clinic. Subjects returned the next day for a 24 hour post-dose PK blood draw. PK blood draws at 1, 1.25, 2, 3, 4, 6, 10, and 12 hours post-dose were within a ±1 minute window and at 24 hours post dose were within a ±60 minute window.
All subjects who qualified at Visit 2 returned to the clinic for Visit 4 following a minimum ten day washout period. At Visit 4, subjects recorded individual nasal and ocular symptoms on 0-3 unit scales prior to entering the EEC and every 30 minutes for the first two hours while in the EEC, including just prior to dosing. […] At the end of Visit 4, subjects recorded reflective nasal symptom scores, summarizing their subjective opinion of each nasal and ocular symptom score (same 0-3 unit scales), over the entire post-dosing period in the EEC. […]

absorption from the nasal sprays: absorbed quickly
half-life: short
Structure (SMILES): O=C(O)CCCN1CCC(O[C@@H](c2ccc(Cl)cc2)c2ccccn2)CC1 [bepotastine, (+)-(S)-4-[4-[(4-chlorophenyl)(2-pyridyl)methoxy]piperidino]butyric acid]
